In ChEMBL document CHEMBL5338810, “Targeting Pancreatic Cancer with Novel Plumbagin Derivatives: Design, Synthesis, Molecular Mechanism, In Vitro and In Vivo Evaluation” (J Med Chem, 2023):
Calls of active or inactive are those of the source. The rule behind the calls is not given here.

How the values were obtained:
PANC-1 [1] = assay: Preferential cytotoxic activity against human PANC-1 cells in nutrient-deprived medium assessed as reduction in cell viability incubated for 24 hrs by WST-8 cell counting analysis; format: functional
PANC-1 [2] = assay: Cytotoxicity against human PANC-1 cells in Dulbecco's modified Eagle's medium assessed as reduction in cell viability incubated for 24 hrs by WST-8 cell counting analysis; format: functional, cell-based; conditions: PANC-1, 24 h
[3] = Selectivity ratio, ratio of IC50 for cytotoxicity against human PANC-1 cells in Dulbecco's modified Eagle's medium to PC50 for preferential cytotoxic activity against human PANC-1 cells in nutrient-deprived medium; format: functional
[4] = Inhibition of PI3K/Akt/mTOR signaling pathway in human PANC-1 cells in nutrient-deprived medium incubated for 3 to 6 hrs by Western blotting analysis; format: cell-based; conditions: dose 0.5-10 µM, time 3-6 hrs
PANC-1 [5] = assay: Disruption of plasma membrane integrity in human PANC-1 cells in nutrient-deprived medium assessed as leakage of cellular contents by measuring increase in red fluorescence at 1 uM incubated for 24 hrs by dual fluorescent staining based microscopic analysis; format: functional, cell-based
[6] = Inhibition of PI3K/Akt/mTOR signaling pathway in human PANC-1 cells in nutrient-deprived medium at 0.5 to 10 uM by Western blotting analysis; format: cell-based; conditions: dose 0.5-10 µM, time 3-6 hrs, TDE = time-dependent effect
[7] = Inhibition of PI3K/Akt/mTOR signaling pathway in human PANC-1 cells in nutrient-deprived medium assessed as redution in Akt phosphorylation at 0.5 to 10 uM incubated for 3 hrs by Western blotting analysis; format: cell-based; conditions: dose 0.5-10 µM
PANC-1 [8] = assay: Disruption of plasma membrane integrity in human PANC-1 cells in nutrient-deprived medium assessed as membrane blebs by measuring increase in red fluorescence at 1 uM incubated for 24 hrs by dual fluorescent staining based microscopic analysis; format: functional, cell-based
MIA PaCa-2 [9] = assay: Antitumor activity against human MIA PaCa-2 cells xenografted in athymic BALB/c-nu mouse assessed as reduction in average mean wet weight at 50 ug, ip administered 5 times per week for 4 weeks and measured on day 32 (reference value: 465.4 mg); format: functional; conditions: dose 50 µg
MIA PaCa-2 [10] = assay: Antitumor activity against human MIA PaCa-2 cells xenografted in athymic BALB/c-nu mouse assessed as reduction in mean tumor volume at 50 ug, ip administered 5 times per week for 4 weeks and measured on day 32 (reference value: 1642 mm3); format: functional; conditions: dose 50 µg
[11] = Toxicity in athymic BALB/c-nu mouse xenografted with human MIA PaCa-2 cells assessed as changes in abdominal organs at 50 to 250 ug, ip administered 5 times per week for 4 weeks; format: organism-based; conditions: in vivo, 672 h, dose 50-250 µg
[12] = Toxicity in athymic BALB/c-nu mouse xenografted with human MIA PaCa-2 cells assessed as survival at 50 to 250 ug, ip administered 5 times per week for 4 weeks; format: organism-based; conditions: in vivo, 672 h, dose 50-250 µg
MIA PaCa-2 [13] = assay: Antitumor activity against human MIA PaCa-2 cells xenografted in athymic BALB/c-nu mouse assessed as reduction in mean tumor volume at 250 ug, ip administered 5 times per week for 4 weeks and measured on day 32 (reference value: 1642 mm3); format: functional; conditions: dose 250 µg
MIA PaCa-2 [14] = assay: Antitumor activity against human MIA PaCa-2 cells xenografted in athymic BALB/c-nu mouse assessed as reduction in mean tumor volume at 250 ug, ip administered 5 times per week for 4 weeks and measured on day 18 (reference value: 447 mm3); format: functional; conditions: dose 250 µg
MIA PaCa-2 [15] = assay: Antitumor activity against human MIA PaCa-2 cells xenografted in athymic BALB/c-nu mouse assessed as reduction in blood vessels at 50 to 250 ug, ip administered 5 times per week for 4 weeks; format: functional, organism-based; conditions: dose 50-250 µg
PANC-1 [16] = assay: Disruption of plasma membrane integrity in human PANC-1 cells in nutrient-deprived medium assessed as rounded cell morphology by measuring increase in red fluorescence at 1 uM incubated for 24 hrs by dual fluorescent staining based microscopic analysis; format: functional
PANC-1 [17] = assay: Disruption of plasma membrane integrity in human PANC-1 cells in nutrient-deprived medium assessed as rupture of the cell membrane by measuring increase in red fluorescence at 1 uM incubated for 24 hrs by dual fluorescent staining based microscopic analysis; format: functional
MIA PaCa-2 [18] = assay: Antitumor activity against human MIA PaCa-2 cells xenografted in athymic BALB/c-nu mouse assessed as reduction in average mean wet weight at 250 ug, ip administered 5 times per week for 4 weeks and measured on day 32 (reference value: 465.4 mg); format: functional; conditions: dose 250 µg
MIA PaCa-2 [19] = assay: Antitumor activity against human MIA PaCa-2 cells xenografted in athymic BALB/c-nu mouse assessed as changes in gross appearance of tumor at 50 to 250 ug, ip administered 5 times per week for 4 weeks; format: functional, organism-based; conditions: dose 50-250 µg
[20] = Toxicity in athymic BALB/c-nu mouse xenografted with human MIA PaCa-2 cells assessed as changes in body weight at 50 to 250 ug, ip administered 5 times per week for 4 weeks and measured twice weekly; format: organism-based; conditions: in vivo, 672 h, dose 50-250 µg
MIA PaCa-2 [21] = assay: Antitumor activity against human MIA PaCa-2 cells xenografted in athymic BALB/c-nu mouse assessed as reduction in mean tumor volume at 50 ug, ip administered 5 times per week for 4 weeks and measured on day 18 (reference value: 447 mm3); format: functional; conditions: dose 50 µg

Structure (SMILES) | PC50 (PANC-1 [1]) [µM] | IC50 (PANC-1 [2]) [µM] | Ratio [3] | also measured
Cc1ccc(CC2=CC(=O)c3ccccc3C2=O)cc1 | 4.67 | 76.2 | 16.3 | 
O=C1C=C(CC2CCCCC2)C(=O)c2ccccc21 | 0.96 | 66.9 | 69.9 | 
CCCC1=CC(=O)c2c(O)cccc2C1=O | 0.45 | 15.6 | 34.7 | 
CCC1=CC(=O)c2ccccc2C1=O | 1.2 | 39.7 | 33.1 | 
CCCC1=CC(=O)c2ccccc2C1=O | 3.55 | 39.1 | 11 | 
O=C1C=C(CC2CCCCC2)C(=O)c2c(O)cccc21 | 0.74 | 31.9 | 42.9 | 
CCC1=CC(=O)c2c(O)cccc2C1=O | 1.46 | 31.6 | 21.6 | 
O=C1C=C(Cc2cccc(Cl)c2)C(=O)c2ccccc21 | 2.84 | 46.7 | 16.4 | 
CC1=CC(=O)c2c(O)cccc2C1=O [PLUMBAGIN] | 1.54 | 23.7 | 15.4 | 
CCC1=CC(=O)c2cccc(O)c2C1=O | 1.05 | 8.56 | 8.2 | 
O=C1C(CC2CCCCCC2)=CC(=O)c2c(O)cccc21 | 0.78 | 4.22 | 5.41 | 
CCC1=CC(=O)c2c(OC)cccc2C1=O | 21.2 | 103 | 4.86 | 
O=C1C(CC2CCCCC2)=CC(=O)c2c(O)cccc21 | 0.11 | 47.2 | 429 | inhibition [4]: Dose-Dependent Effect; Activity (PANC-1 [5]): Active; inhibition [6]: Tde; inhibition [7]: Active; Activity (PANC-1 [8]): Active; Activity (MIA PaCa-2 [9]): 205.8 mg; Activity (MIA PaCa-2 [10]): 763 mm3; Activity [11]: Non-Toxic; Activity [12]: Non-Toxic; Activity (MIA PaCa-2 [13]): 446 mm3; Activity (MIA PaCa-2 [14]): 166 mm3; Activity (MIA PaCa-2 [15]): Active; Activity (PANC-1 [16]): Active; Activity (PANC-1 [17]): Active; Activity (MIA PaCa-2 [18]): 107.6 mg; Activity (MIA PaCa-2 [19]): Active; Activity [20]: Non-Toxic; Activity (MIA PaCa-2 [21]): 210 mm3
CC(C)CC1=CC(=O)c2c(O)cccc2C1=O | 0.39 | 12.9 | 33.1 | 
O=C1C(CC2CCCC2)=CC(=O)c2c(O)cccc21 | 0.4 | 8.4 | 21 | 
